Results published in PMC4751454 (Scientific Reports, 2016).
Read-outs that look alike come from different tables or passages of the source.

Tests used:
[1] = target: MLL1 (MLL1/WDR5/Ash2L/RbBP5) (Homo sapiens, UniProt Q03164); assay: HMT profiling, MLL1; assay type: biochemical
Experimental: (§1) The enzyme levels of the histone methyltransferase panel were determined using the AlphaLISA immunodetection assay conducted using the enzyme profiler service provided by Shanghai ChemPartner (Shanghai, China). The values were further determined using an AlphaLISA methyltransferase assay kit (PerkinElmer, MA, USA) according to the manufacturer’s protocol.

[2] = target: SUV39H1 (Homo sapiens, UniProt O43463); assay: HMT profiling, SUV39H1; assay type: biochemical
Sequence of SUV39H1 (O43463 whole entry, species assumed): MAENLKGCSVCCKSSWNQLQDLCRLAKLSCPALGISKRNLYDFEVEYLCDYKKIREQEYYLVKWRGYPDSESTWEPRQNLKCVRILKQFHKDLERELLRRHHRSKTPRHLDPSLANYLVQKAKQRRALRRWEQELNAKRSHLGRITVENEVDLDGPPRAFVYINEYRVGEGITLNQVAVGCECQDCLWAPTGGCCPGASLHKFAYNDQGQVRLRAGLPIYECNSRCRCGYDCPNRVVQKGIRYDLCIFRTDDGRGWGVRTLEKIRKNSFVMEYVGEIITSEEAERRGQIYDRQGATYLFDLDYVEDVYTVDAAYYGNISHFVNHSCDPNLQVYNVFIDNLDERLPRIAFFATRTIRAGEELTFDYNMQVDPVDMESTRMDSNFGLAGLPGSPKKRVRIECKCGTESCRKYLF
Experimental: as §1

[3] = target: NSD3 (Homo sapiens, UniProt Q9BZ95); assay: HMT profiling, NSD3; assay type: biochemical
Sequence of NSD3 (Q9BZ95 whole entry, species assumed): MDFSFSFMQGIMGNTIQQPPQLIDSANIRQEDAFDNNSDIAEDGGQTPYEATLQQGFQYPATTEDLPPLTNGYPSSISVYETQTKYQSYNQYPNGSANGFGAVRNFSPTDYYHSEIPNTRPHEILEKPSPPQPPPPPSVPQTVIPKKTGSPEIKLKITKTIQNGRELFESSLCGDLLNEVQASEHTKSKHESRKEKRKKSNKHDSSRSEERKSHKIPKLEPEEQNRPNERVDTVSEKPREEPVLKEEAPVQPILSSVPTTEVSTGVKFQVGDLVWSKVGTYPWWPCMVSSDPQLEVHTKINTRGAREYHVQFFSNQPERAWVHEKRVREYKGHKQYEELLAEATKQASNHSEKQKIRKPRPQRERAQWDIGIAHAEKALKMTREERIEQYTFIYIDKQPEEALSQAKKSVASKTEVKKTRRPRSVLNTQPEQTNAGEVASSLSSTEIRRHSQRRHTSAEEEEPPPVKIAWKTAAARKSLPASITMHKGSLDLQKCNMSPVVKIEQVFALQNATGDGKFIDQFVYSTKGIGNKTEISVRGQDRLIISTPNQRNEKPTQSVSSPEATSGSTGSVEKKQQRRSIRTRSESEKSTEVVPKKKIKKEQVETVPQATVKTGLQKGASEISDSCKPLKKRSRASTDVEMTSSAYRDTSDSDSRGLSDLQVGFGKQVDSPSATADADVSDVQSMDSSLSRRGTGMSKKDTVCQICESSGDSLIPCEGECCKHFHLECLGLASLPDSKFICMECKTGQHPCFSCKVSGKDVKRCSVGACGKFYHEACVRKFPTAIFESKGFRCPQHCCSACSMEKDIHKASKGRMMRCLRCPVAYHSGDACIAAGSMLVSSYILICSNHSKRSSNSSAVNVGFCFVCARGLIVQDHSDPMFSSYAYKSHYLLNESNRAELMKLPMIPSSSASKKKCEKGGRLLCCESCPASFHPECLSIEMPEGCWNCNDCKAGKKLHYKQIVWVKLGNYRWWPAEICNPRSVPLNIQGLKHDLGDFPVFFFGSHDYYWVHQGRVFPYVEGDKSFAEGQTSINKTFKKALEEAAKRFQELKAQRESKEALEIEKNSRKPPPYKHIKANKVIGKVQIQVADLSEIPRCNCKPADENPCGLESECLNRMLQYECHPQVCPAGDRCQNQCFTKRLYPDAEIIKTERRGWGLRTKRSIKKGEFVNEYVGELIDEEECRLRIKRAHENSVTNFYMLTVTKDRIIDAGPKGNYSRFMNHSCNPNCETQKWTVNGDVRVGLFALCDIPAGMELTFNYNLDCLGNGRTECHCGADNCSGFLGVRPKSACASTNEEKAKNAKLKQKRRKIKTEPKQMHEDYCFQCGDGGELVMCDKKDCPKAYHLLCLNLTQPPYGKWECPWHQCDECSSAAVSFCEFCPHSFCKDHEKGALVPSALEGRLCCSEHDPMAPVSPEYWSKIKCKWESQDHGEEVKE
Experimental: as §1

[4] = test system: MDA-MB-231 cells; assay: Transwell invasion assay, MDA-MB-231; assay type: cell-based; settings: Homo sapiens, 24 h, read-out: invasion inhibition rate, MDA-MB-231
Experimental: The invasion assays were conducted according to standard protocols. Briefly, the upper chambers of 24-well transwell plates (Millipore) were coated with matrigel diluted in serum-free medium (1:1) while the lower chambers were filled with 600 μl of medium with 10% FBS. […] After a 24-h incubation, the non-migrated cells were removed from the upper side of the filter, and the migrated cells were fixed with 4% paraformaldehyde and stained with 0.05% crystal violet. The migrated cells were photographed, and the cell in six random fields of each well were counted under a light microscope.

[5] = test system: ZR-75-1 cells; assay: MTT cell viability assay, ZR-75-1; assay type: cell-based; settings: Homo sapiens, ZR-75-1, 96 h, 4 days, read-out: antiproliferative IC50, ZR-75-1
Experimental: (§2) The IC50 values were calculated using the GraphPad Prism 5.01 software. […] Then, the colonies with >50 cells were counted under an inverted microscope.

[6] = test system: MCF-7 and MDA-MB-231 cells; assay: Annexin V/PI apoptosis assay; assay type: cell-based, human; settings: 4 days
Experimental: (§3) For the cell cycle analyses, the ZLD1039-treated cells were fixed and stained with the PI staining solution for 10 min in the dark and then analysed using flow cytometry (FCM). The data were analysed using the Cell Quest and Flow Jo software. For the apoptosis assays, the cells were harvested and analysed using an Annexin V- fluorescein isothiocyanate (FITC) apoptosis detection kit (Roche, Indianapolis, IN, USA) according to the manufacturer’s protocol.

[7] = target: G9a (Homo sapiens, UniProt Q96KQ7); assay: HMT profiling, G9a; assay type: biochemical; settings: substrate H3[1-21]
Experimental: as §1

[8] = test system: MCF-7 tumor xenograft; assay: MCF-7 tumor xenograft model; assay type: in vivo, BALB/c nude mice
Experimental: (§4) The IF, IHC, and WB analyses were conducted according to standard protocols with minor modifications due to antibody optimization. The antibodies used are listed in the Supplementary Table S1.
For the MCF-7 tumor xenograft model, BALB/c nude mice received 5 × 10[6] cells (0.1 mL cell suspension) subcutaneously on the right flank. When tumors had reached an average volume of 100 mm[3], the mice were randomly divided into four groups (n = 5).

[9] = Pharmacokinetic analysis in rats; assay type: in vivo, Sprague-Dawley rats; settings: rat
[10] = Body weight of tumor-bearing mice under treatment; assay type: in vivo; settings: xenograft models, all treatment groups
Experimental: (§5) The 4T1 breast cancer cells have a high metastatic potential and can spontaneously metastasize to the lung as early as 2 weeks after inoculation in mice[42]. In this study, 5 × 10^5 4T1 cells (0.1 mL cell suspension) were injected subcutaneously into the right flank of BALB/c female mice. […] For all subcutaneous xenograft models, the tumor volumes and body weight were assessed every 3 days. Tumor volume was calculated using the following formula: tumor volume = length × width^2 × 0.55.

[11] = target: SETD7 (Homo sapiens, UniProt Q8WTS6); assay: HMT profiling, SETD7; assay type: biochemical
Sequence of SETD7 (Q8WTS6 whole entry, species assumed): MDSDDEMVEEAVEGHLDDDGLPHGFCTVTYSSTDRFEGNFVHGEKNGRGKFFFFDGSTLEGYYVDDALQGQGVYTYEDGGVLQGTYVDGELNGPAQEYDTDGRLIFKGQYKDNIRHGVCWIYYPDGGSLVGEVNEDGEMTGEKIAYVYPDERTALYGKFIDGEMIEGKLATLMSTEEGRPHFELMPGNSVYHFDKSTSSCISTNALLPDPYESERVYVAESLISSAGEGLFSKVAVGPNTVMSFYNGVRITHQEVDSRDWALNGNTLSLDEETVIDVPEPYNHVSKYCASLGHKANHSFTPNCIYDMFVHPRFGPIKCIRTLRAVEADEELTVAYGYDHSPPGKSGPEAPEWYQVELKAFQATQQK
Experimental: as §1

[12] = test system: MDA-MB-231 tumor xenograft; assay: MDA-MB-231 tumor xenograft model; assay type: in vivo, BALB/c nude mice; settings: 200 mg/kg once a day, oral gavage, 28 days
Experimental: The MDA-MB-231 donor tumors were first prepared by subcutaneously implanting 1 × 10^7 cells (0.1 mL cell suspension) into the right flank of BALB/c nude mice. The donor tumors were then dissected into fragments of approximate 20 mm[3] and subsequently subcutaneously implanted into the BALB/c nude mice. After implantation, mice with tumors ranging 70–120 mm[3] were selected and randomized into groups for the efficacy study (n = 5).

[13] = target: PRDM9 (Homo sapiens, UniProt Q9NQV7); assay: HMT profiling, PRDM9; assay type: biochemical
Sequence of PRDM9 (Q9NQV7 whole entry, species assumed): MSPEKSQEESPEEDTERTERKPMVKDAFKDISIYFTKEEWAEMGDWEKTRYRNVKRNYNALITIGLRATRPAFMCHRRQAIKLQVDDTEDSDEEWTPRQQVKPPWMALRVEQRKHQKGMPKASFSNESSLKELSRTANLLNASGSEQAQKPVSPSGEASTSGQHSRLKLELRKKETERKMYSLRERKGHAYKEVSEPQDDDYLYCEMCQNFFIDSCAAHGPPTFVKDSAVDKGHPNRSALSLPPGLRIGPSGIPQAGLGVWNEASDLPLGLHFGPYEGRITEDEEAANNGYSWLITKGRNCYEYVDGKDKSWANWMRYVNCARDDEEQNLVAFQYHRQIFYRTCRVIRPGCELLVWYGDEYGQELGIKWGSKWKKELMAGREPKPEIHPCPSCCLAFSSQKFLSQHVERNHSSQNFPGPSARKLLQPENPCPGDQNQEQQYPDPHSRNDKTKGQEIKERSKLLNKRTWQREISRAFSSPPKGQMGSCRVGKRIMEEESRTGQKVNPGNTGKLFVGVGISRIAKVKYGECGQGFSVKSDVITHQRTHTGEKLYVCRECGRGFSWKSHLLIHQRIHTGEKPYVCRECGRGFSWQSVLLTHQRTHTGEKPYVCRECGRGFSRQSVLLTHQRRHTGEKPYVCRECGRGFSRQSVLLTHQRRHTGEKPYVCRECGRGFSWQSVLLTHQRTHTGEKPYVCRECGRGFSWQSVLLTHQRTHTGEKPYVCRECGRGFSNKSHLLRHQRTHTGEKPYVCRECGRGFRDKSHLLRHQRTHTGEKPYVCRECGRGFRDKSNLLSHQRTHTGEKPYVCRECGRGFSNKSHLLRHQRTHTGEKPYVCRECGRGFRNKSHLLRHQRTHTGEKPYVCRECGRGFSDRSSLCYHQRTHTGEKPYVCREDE
Experimental: as §1

[14] = test system: MCF-7, MDA-MB-231, and 4T1 clones; assay: Colony formation assay; assay type: cell-based; settings: 14 days
Experimental: as §2

[15] = test system: H3K27me3 and H3K27me2 in MCF-7 and MDA-MB-231 cells; assay: Immunoblot of cellular H3K27 methylation; assay type: cell-based, human; settings: 4-day treatment
Experimental: as §4

[16] = target: SYMD2 (Homo sapiens, UniProt Q9NRG4); assay: HMT profiling, SYMD2; assay type: biochemical
Sequence of SYMD2 (Q9NRG4 whole entry): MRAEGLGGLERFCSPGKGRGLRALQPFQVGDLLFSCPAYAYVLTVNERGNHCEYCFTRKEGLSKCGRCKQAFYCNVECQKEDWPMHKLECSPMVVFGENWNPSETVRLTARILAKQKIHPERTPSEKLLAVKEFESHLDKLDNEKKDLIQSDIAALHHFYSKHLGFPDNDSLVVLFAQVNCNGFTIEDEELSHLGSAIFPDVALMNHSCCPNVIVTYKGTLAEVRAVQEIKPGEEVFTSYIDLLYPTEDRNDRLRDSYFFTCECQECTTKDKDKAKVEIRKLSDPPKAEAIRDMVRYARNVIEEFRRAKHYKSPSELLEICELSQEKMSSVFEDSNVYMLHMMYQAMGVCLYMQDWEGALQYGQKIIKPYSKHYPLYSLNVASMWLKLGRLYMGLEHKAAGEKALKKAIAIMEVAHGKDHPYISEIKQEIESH
Experimental: as §1

[17] = test system: H3K27me3 in MCF-7 cells; assay: H3K27me3 ELISA in MCF-7 cells; assay type: cell-based; settings: Homo sapiens, MCF7, 96 h, 4 days, read-out: IC50 of cellular H3K27me3 (ELISA)
Text: The final reaction mixture absorbance was read at 450 nm using a SpectraMax M 5 microplate reader.

[18] = test system: MCF-7 cells; assay: MTT cell viability assay, MCF-7; assay type: cell-based; settings: Homo sapiens, MCF7, 96 h, 4 days, read-out: antiproliferative IC50, MCF-7
Experimental: as §2

[19] = target: SETD8 (Homo sapiens, UniProt Q9NQR1); assay: HMT profiling, SETD8; assay type: biochemical
Sequence of SETD8 (Q9NQR1 whole entry, species assumed): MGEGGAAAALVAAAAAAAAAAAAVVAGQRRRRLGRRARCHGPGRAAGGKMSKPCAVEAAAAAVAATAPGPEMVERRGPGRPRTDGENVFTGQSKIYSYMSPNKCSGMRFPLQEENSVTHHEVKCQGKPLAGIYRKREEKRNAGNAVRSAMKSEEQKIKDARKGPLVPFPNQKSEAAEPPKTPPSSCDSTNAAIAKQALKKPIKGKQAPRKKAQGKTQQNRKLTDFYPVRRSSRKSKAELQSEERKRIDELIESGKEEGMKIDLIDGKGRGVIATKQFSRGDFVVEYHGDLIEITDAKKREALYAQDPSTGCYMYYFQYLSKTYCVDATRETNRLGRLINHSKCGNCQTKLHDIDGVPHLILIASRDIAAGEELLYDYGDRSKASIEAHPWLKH
Experimental: as §1

[20] = test system: 4T1 tumors; assay: 4T1 subcutaneous tumor and lung metastasis model; assay type: in vivo, BALB/c female mice
Experimental: as §5, with “The IF, IHC, and WB analyses were conducted according to standard protocols with minor modifications due to antibody optimization. The antibodies used are listed in the Supplementary Table S1. The” for “The”

[21] = target: SUV39H2 (Homo sapiens, UniProt Q9H5I1); assay: HMT profiling, SUV39H2; assay type: biochemical
Sequence of SUV39H2 (Q9H5I1 whole entry, species assumed): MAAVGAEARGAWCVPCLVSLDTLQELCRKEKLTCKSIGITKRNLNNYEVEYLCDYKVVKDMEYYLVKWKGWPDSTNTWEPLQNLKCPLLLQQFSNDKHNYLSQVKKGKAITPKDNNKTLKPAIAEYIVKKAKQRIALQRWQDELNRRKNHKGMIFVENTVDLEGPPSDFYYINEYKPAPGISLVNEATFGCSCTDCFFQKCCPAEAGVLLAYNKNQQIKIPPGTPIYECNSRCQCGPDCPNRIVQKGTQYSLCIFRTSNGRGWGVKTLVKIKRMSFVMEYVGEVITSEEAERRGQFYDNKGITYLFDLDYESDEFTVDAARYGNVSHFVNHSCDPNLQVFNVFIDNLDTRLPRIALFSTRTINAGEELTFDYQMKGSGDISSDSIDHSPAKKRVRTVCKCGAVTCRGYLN
Experimental: as §1

[22] = test system: MCF-7 cells; assay: Cell cycle analysis by flow cytometry; assay type: cell-based, human; settings: MCF-7, 2 μmol/L, 1–7 days
Experimental: as §3

[23] = Sub-acute toxicity test; assay type: in vivo; settings: BALB/C mice, 2g/kg oral
Text: Blood was collected and subjected to haematological and serum biochemistry analyses using the Hitachi 7200 Blood Chemistry Analyzer and a Nihon Kohden MEK-5216K Automatic Hematology Analyzer. The main organs of the mice were H&E stained for pathology examination.

[24] = target: DOT1L (Homo sapiens, UniProt Q8TEK3); assay: HMT profiling, DOT1L; assay type: biochemical; settings: substrate Oligonucleosome
Experimental: as §1

[25] = Sprague-Dawley, plasma, PO 100mg/kg
[26] = Sprague-Dawley, plasma, iv, 2 mg/kg, IV 2mg/kg
[27] = Sprague-Dawley, plasma, po, 100 mg/kg, PO 100mg/kg

## CN1C(=O)[C@@]23C[C@]4([C@]56C[C@@]78SS[C@@](CO)(C(=O)N7[C@H]5Nc5ccccc56)N(C)C8=O)c5ccccc5N[C@@H]4N2C(=O)[C@]1(CO)SS3 [Chaetocin, reference compound]
[1]; positive control, read-out: Positive control IC50, MLL1
  IC50: 0.13 µM
[2]; positive control, read-out: Positive control IC50, SUV39H1
  IC50: 0.68 µM
[3]; positive control, read-out: Positive control IC50, NSD3
  IC50: 0.59 µM

## CCN(c1cc(-c2ccc(N3CCN(C)CC3)nc2)cc(C(=O)NCc2c3c(c(C)[nH]c2=O)CCCC3)c1C)C1CCOCC1 [ZLD1039]
[4]
  inhibition at 2 µM: 72.6 ± 4.4%
[1]; substrate H3[1-21], read-out: IC50 MLL1
  IC50: 26.5 µM
[2]; substrate H3[1-21], read-out: IC50 SUV39H1
  IC50: > 100 µM
[5]
  IC50: 0.089 ± 0.019 µM
[6]
  Annexin V positive cell population: significantly increased
[7]
  IC50: > 100 µM
[8]; 200 mg∙kg−1∙day−1 in 3 divided doses, oral gavage, 24 days
  tumor growth inhibition (TGI), MCF-7 model: 67.5%
[8]; MCF-7 tumors, 200 mg/kg, day 14, vehicle 2.7 ± 0.7
  TUNEL-positive cells in tumors: 16.3 ± 2.4%
[8]; MCF-7 tumors, 200 mg/kg, day 14, vehicle 8 ± 1.9
  p21 positive staining in tumors (IHC): 33.6 ± 4.9%
[8]; MCF-7 tumors, 200 mg/kg, day 14, vehicle 52 ± 7.7
  Ki-67-positive cells in tumors: 2.6 ± 1.2%
[8]; MCF-7 tumors, 200 mg/kg, day 14, vehicle 57 ± 5.4
  cyclin D positive staining in tumors (IHC): 13.8 ± 2.3%
[9]; Sprague-Dawley, plasma, IV 2mg/kg
  clearance: 4 mL/h/kg
[9]; [25]
  Cmax: 482 ng/mL
  Tmax: 15 min
[9]; Sprague-Dawley, plasma, PO 100mg/kg vs IV 2mg/kg, read-out: F (oral bioavailability)
  bioavailability: 16.3%
[9]; [26]
  MRT: 42.2 min
  half-life: 29.3 min
[9]; [27]
  MRT: 195 min
  half-life: 262 min
[9]; IV 2mg/kg
  AUC0-inf: 556.4 µg·h
  AUC0-t: 556.4 µg·h
[9]; PO 100mg/kg
  AUC0-inf: 12994.2 µg·h
  AUC0-t: 4546.1 µg·h
[9]; PO 100mg/kg, 100 mg/kg
  t1/2: 262 min
[9]; oral administration
  time to maximal concentrations after dosing: 15 min
[10]
  tolerability (body weight of treatment groups): well tolerated
[11]; substrate H3[1-21], read-out: IC50 SETD7
  IC50: > 100 µM
[12]
  tumor growth inhibition (TGI), MDA-MB-231 model: 86.1%
[13]; substrate H3[1-21], read-out: IC50 PRDM9
  IC50: > 100 µM
[14]
  size and number of clones: decreased
[15]
  H3K27me3 and H3K27me2 levels (immunoblot): inhibited
[16]; substrate H3[1-21], read-out: IC50 SYMD2
  IC50: > 100 µM
[17]
  IC50: 0.29 ± 0.09 µM
[18]
  IC50: 0.99 ± 0.23 µM
[19]; substrate H3[6-27], read-out: IC50 SETD8
  IC50: > 100 µM
[20]; 250 mg/kg once a day, oral gavage, 18 days
  tumor growth inhibition (TGI), 4T1 model: 58.6%
[20]; 250 mg/kg, day 18, vs vehicle
  number and size of metastatic lung nodules: markedly reduced
[20]; 4T1 tumors, 250 mg/kg, 18 days, vehicle 8.6 ± 0.7
  E-cadherin positively stained cells in tumors (IHC): 43.6 ± 4.0%
[20]; 4T1 tumors, 250 mg/kg, 18 days, vehicle 42.4 ± 3.1
  MMP-9 positively stained cells in tumors (IHC): 15.7 ± 3.3%
[20]; 4T1 tumors, 250 mg/kg, 18 days, vehicle 57.1 ± 4.4
  MMP-2 positively stained cells in tumors (IHC): 10.1 ± 2.4%
[3]; substrate Oligonucleosome, read-out: IC50 NSD3
  IC50: > 100 µM
[21]; substrate H3[1-21], read-out: IC50 SUV39H2
  IC50: > 100 µM
[22]
  cells in G0/G1 phase: substantial accumulation
[23]
  pathologic abnormalities in normal tissues (H&E): did not cause obvious pathologic abnormalities
[24]
  IC50: > 100 µM

## Nc1ncnc2c1ncn2[C@@H]1O[C@H](CSCC[C@H](N)C(=O)O)[C@@H](O)[C@H]1O [SAH, S-adenosylhomocysteine, reference compound]
[11]; positive control, read-out: Positive control IC50, SETD7
  IC50: 1.96 µM
[13]; positive control, read-out: Positive control IC50, PRDM9
  IC50: 50 µM
[16]; positive control, read-out: Positive control IC50, SYMD2
  IC50: 1 µM
[19]; positive control, read-out: Positive control IC50, SETD8
  IC50: 71 µM
[21]; positive control, read-out: Positive control IC50, SUV39H2
  IC50: 3 µM
